This is an account of results in patent publication US9763910B1, “Combination therapy for treating cancer” (Huanggang Normal University, priority 2016, dated 2017).

One data set relates to CL1-5 lung cancer cells. Description: Growth inhibition of CL1-5 lung cancer cells (cell viability by absorbance). The settings on record: Homo sapiens, CL1-5, read-out: IC50 rate of docetaxel for the CL1-5 cells.
Data set [1] concerns CL1-5 human lung cancer cells engrafted in BALB/c nude mice. Description: Tumor growth in CL1-5 cell-engrafted BALB/c nude mice. As to conditions: CL1-5 engrafted nude mice.
Experimental: The study was carried out as follows: inoculating BALB/c mice with of the CL1-5 human lung cancer cells; dividing the mice into 4 groups 7 days after inoculation with 8 mice in each group and treating them once every two days for 14 days respectively with (i) 0.4 ml of 10% DMSO, (ii) 0.4 ml of 10% DMSO containing 25 μmol of docetaxel, (iii) 0.4 ml of 10% DMSO containing 15.5 μmol of 5-demethylnobiletin, and (iv) 0.4 ml of 10% DMSO containing 25 μmol of docetaxel and 15.5 μmol of 5-demethylnobiletin; growing mice without any treatment for another 14 days; measuring tumor sizes after animal sacrificing.
The experimental BALB/c nude mice were divided into 4 groups, with 8 in each group. Each mouse was inoculated with 0.1 ml of the CL1-5 human lung cancer cells at a density of 10^6 cells/ml. 7 days after of the inoculation, the 4 groups of mice were infused respectively with (i) 27 μl of 10% DMSO; (ii) 25 μmol of docetaxel in a 10% DMSO solution (iii) 15.5 μmol of 5-demethylnobiletin in a 10% DMSO solution; and (iv) 25 μmol of docetaxel and 15.5 μmol of 5-demethylnobiletin in a 10% DMSO solution at a frequency of once every 2 days for 14 days. […]
[1−(fa)2], (fa)1 and (fa)2 are inhibition rates of drug1 and drug2, respectively, and (fa)1,2 is the calculated inhibition rate of combining drug1 and drug2, which is also a theoretical additive effect. […]
Data set [2] is classed as in vivo, mouse. The procedure:
BALB/c nude mice were divided into two groups, with 8 mice in each group. […] Then, liver, spleen, and kidney weights of the mice in each group were measured and blood was collected. Following at RT for 1 h, the blood was centrifuged at 3000 rpm for 10 min at 4° C. to collect serum before stored at −80° C. Clinical chemistry measurements, e.g., levels of AST, ALT, triglyceride (TG), and total cholesterol (TC), were measured by an automatic biochemical analyzer.

Setting [3] is: 15.5 μmol once every 2 days for 14 days, sacrificed after another 14 days.
[4] abbreviates: serum, 15.5 μmol once every 2 days for 14 days.

pIC50: −log10 of the molar value.

Experimental for CL1-5 lung cancer cells: The CL1-5 cells were cultured in RPMI 1640 medium containing 100 U/ml penicillin, 100 μg/ml streptomycin, and 10% fetal bovine serum at a temperature of 37° C. and with carbon dioxide at a concentration of 5%. The cultured cells were divided into 8 treatment groups. 4 groups were treated only with docetaxel at different concentrations: 3.125, 6.25, 12.5, and 25.0 nmol of docetaxel per liter of the medium in 100 μl of 10% DMSO solution.

`CC(=O)O[C@@]12CO[C@@H]1C[C@H](O)[C@@]1(C)C(=O)[C@H](O)C3=C(C)[C@@H](OC(=O)[C@H](O)[C@@H](NC(=O)OC(C)(C)C)c4ccccc4)C[C@@](O)([C@@H](OC(=O)c4ccccc4)[C@H]21)C3(C)C` [docetaxel, 1,7β,10β-trihydroxy-9-oxo-5β,20-epoxytax-11-ene-2α,4,13α-triyl 4-acetate 2-benzoate 13-{(2R,3S)-3-[(tert-butoxycarbonyl)amino]-2-hydroxy-3-phenylpropanoate}, reference compound]: in the data set with CL1-5 lung cancer cells, the pIC50 – broadly, −log10 of the IC50, conventionally taken in molar units – is 7.55. The “experimental inhibition rate (fa) of tumor growth” value in data set [1] came to 47.6%.

Take `COc1ccc(-c2cc(=O)c3c(O)c(OC)c(OC)c(OC)c3o2)cc1OC` [5-Hydroxy-6,7,8,3′,4′-pentamethoxyflavone]: in data set [2] (setting [3]), the Kidney weight is reported as 0.90 ± 0.06 g, the Liver weight was found to be 3.93 ± 0.28 g and the Spleen weight worked out at 0.21 ± 0.04 g. Moreover, in data set [2] (Table 1 parameters), the “difference between control group and treatment group in organ weights and clinical chemistry” value is listed as “no significant difference”. In addition, in data set [2] (setting [4]), the GOT was 91.2 ± 9.8 Unit/L, the GPT was found to be 22.8 ± 5.2 Unit/L, the TC was 77.1 ± 4.9 mg/dL and the TG stood at 109.5 ± 36.9 mg/dL. Also, the “experimental inhibition rate (fa) of tumor growth” value in data set [1] is 38%.
